Values of other authors in patent US9459187B2, “Blood collection device containing lysophospholipase inhibitor” (Becton, Dickinson and Company, priority 2011, dated 2016).

Key:
[1] = target: acetylcholinesterase (AChE) (Homo sapiens, UniProt P22303); details: read-out: Ki for AChE
Sequence of acetylcholinesterase (AChE) (P22303 32-614, species assumed): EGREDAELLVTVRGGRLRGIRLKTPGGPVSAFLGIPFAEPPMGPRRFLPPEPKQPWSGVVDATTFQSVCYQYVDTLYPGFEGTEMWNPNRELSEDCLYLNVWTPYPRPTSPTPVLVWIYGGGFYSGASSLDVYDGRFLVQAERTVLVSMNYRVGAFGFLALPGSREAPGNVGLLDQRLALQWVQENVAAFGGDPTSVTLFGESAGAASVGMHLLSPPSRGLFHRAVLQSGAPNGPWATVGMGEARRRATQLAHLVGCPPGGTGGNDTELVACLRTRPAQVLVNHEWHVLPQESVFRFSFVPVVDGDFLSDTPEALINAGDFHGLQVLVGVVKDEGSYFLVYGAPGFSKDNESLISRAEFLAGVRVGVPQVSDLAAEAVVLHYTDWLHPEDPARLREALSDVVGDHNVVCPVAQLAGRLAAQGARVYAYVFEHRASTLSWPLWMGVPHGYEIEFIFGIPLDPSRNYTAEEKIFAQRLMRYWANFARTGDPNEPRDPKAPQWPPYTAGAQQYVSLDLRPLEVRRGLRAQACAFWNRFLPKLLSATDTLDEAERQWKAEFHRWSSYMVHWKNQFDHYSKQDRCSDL

For `CCC1=CC2Cc3nc4cc(Cl)ccc4c(N)c3[C@H](C1)C2` [Huprine X, (1S)-7-chloro-15-ethyl-10-azatetracyclo[11.3.1.0^{2,11}.0^{4,9}]heptadeca-2(11),3,5,7,9,14-hexaen-3-amine], which Ki [1] is on record?
Its Ki is 0.026 nM.

With GIP(1-42) as the compound, how does the half-life in circulation read?
The half-life in circulation was “about 5 minutes”.

With “ghrelin: 28-amino acid peptide having the sequence NH2-GSSFLSPEHQRVQQRKESKKPPAKLQPR-COOH (H-GSSFLSPEHQRVQQRKESKKPPAKLQPR-OH; ends and bridges not checked)” as the compound, how does the half-life in circulation read?
Its half-life in circulation is “about 30 minutes”.

For “glucagon: 29-amino acid peptide involved in carbohydrate metabolism”, which half-life in circulation is on record?
Its half-life in circulation is 8 to 18 min.
